“Also recorded” adds a separate entry of the source.
Columns and labels:
[1] = system: ovariectomized animal model; assay: Osteoporosis alleviation in ovariectomized animal model, Micro CT of femur; assay type: in vivo, SD female mice
Experimental: To determine the effect of alleviating osteoporosis in an ovariectomized animal model according to administration of CHP, a zinc salt, or a mixture thereof, 20-week-old SD female mice (SLC/Central Experimental Animal Co. Ltd., Seoul, Korea) were purchased and raised under certain conditions (temperature: 22±2° C., relative humidity: 55±10%, light/dark cycle: 12 hours). 7 mice/group were allowed to freely drink water and eat food in a cage, subjected to an adaptation period of 1 week before the experiment, and used in the experiment.
After 6 weeks of the administration of CHP, a zinc salt, or a mixture thereof, the effect of alleviating osteoporosis in an ovariectomized animal model was analyzed using Micro CT. The bone mineral density of ovariectomized animals was measured by bone CT scanning of the 3 mm range at the front side of a 2 mm femoral growth plate using micro-CT (QuantumFX, Perkin Elmer, Massachusetts, USA). In addition, a bone volume fraction (BV/TV, %) was measured. The measurement results of the bone mineral density of the femur are illustrated in FIG. 1, and the bone volume fraction is illustrated in FIG. 2.

MC3T3-E1 cells = assay: Alkaline phosphatase (ALP) activity / osteogenic differentiation of MC3T3-E1 osteoblasts; assay type: cell-based
Experimental: MC3T3-E1 cells were incubated in MEMα, an ascorbic acid-free medium containing 10% FBS and 1% penicillin/streptomycin, in a 5% CO2 incubator at 37° C. To induce osteogenic differentiation, 10 mM β-glycerophosphate and […] of ascorbic acid was further added to the basal medium composition.
500 μl of 1×10^5 MC3T3-E1 cells were seeded into a 24-well plate and cultured for 24 hours until they reached 100% confluency. […] At this time, in the undifferentiated group, which is a negative control for differentiation, a basal medium was used instead of the differentiation medium. In the positive control treated with hPTH1-34, the medium was replaced with a differentiation medium 6 hours after the treatment. While the medium was replaced every 48 hours, each concentration of CHP and hPTH1-34 was treated for a total of 14 days.
On day 14 of differentiation, the medium was removed, followed by washing once with PBS and fixing in 4% paraformaldehyde (PFA) at room temperature for 5 minutes. 500 μl of a 1-STEP™ NBCT/BCIP solution was added to allow a reaction to occur at room temperature for 1 hour. The reaction product was washed with distilled water, and then dried at room temperature, and the degree of coloring of the cells was observed using a microscope. Subsequently, DMSO was added to each well, followed by shaking, and then absorbance at 525 nm was measured.

O=C1N[C@@H](Cc2cnc[nH]2)C(=O)N2CCC[C@@H]12 [CHP, cyclo-hispro]
bone mineral density of the femur ([1]; 1 mg/L of CHP in drinking water, 6 weeks, micro-CT, compared to the ovariectomized group (FIG. 1)): significant increase
bone volume fraction (BV/TV) ([1]; 1 mg/L of CHP in drinking water, 6 weeks, micro-CT, compared with positive control risedronate (FIG. 2)): restored to a level similar to that of the positive control
effect on bone mineral density and bone volume fraction relative to zinc salt and zinc salt + CHP mixture groups ([1]; CHP alone vs zinc salt-administered group and combined administration group): significantly stronger
bone mineral density of a femur ([1]; CHP alone, ovariectomized animal model, dose not stated (FIG. 1)): significantly increased
bone volume fraction of a femur ([1]; CHP alone, ovariectomized animal model, dose not stated (FIG. 2)): significantly increased
ALP activity (absorbance at 525 nm) (MC3T3-E1 cells; 2 mM CHP, day 14, compared with positive control hPTH1-34 10 nM (FIG. 4)): level similar to that of the positive control; also recorded: same or similar to that of a positive control
osteogenic differentiation (degree of coloring, ALP staining) (MC3T3-E1 cells; 0.5, 1, 2 mM CHP, day 14 of differentiation, compared to negative control (FIG. 3)): remarkably increased degree of coloring; also recorded: osteogenic differentiation and bone modeling were promoted

— US11975041B2, “Composition comprising CHP (cyclo-his pro) for preventing, improving or treating of bone loss related disease” (NovMetaPharma Co., Ltd., priority 2017, dated 2024)
